The text below walks through data of ChEMBL document CHEMBL5528012, “Discovery of novel deoxyvasicinone derivatives with benzenesulfonamide substituents as multifunctional agents against Alzheimer's disease” (Eur J Med Chem, 2024).

pIC50: −log10 of the molar value. Bounds are passed on as bounds.

Series [1] concerns the target Acetylcholinesterase (Electrophorus electricus, UniProt O42275). Briefly: Inhibition of electric eel AChE using acetylthiocholine iodide as substrate pre-incubated for 30 mins followed by substrate addition and measured after 5 mins by DTNB reagent based Ellman's method. In general terms: Ellman's reagent forms a yellow product with free thiols.
For the next series, the target named is Cholinesterase (Equus caballus, UniProt P81908). Put plainly: Inhibition of equine serum BuChE using S-butyrylthiocholine iodide as substrate pre-incubated for 30 mins followed by substrate addition and measured after 5 mins by DTNB reagent based Ellman's method.
Sequence of Cholinesterase (P81908 whole entry): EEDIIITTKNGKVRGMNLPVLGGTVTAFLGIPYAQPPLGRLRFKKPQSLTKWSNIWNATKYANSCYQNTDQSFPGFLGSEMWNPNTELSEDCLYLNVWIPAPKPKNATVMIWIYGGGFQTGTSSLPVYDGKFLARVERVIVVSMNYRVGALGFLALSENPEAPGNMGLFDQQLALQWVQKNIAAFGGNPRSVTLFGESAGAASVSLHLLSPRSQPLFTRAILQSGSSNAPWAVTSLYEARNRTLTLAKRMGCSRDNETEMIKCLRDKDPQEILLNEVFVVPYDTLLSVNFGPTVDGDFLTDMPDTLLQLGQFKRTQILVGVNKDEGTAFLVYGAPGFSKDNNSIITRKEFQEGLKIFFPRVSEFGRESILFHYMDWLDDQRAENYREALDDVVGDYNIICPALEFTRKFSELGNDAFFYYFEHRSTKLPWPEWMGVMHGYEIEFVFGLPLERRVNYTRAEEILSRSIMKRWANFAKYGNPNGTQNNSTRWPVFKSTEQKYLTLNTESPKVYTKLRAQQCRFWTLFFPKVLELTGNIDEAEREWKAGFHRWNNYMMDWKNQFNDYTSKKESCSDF
For series [2], the target named is Acetylcholinesterase (Homo sapiens, UniProt P22303). Put plainly: Inhibition of AChE (unknown origin).
Sequence of Acetylcholinesterase (Homo sapiens, UniProt P22303) (P22303 whole entry): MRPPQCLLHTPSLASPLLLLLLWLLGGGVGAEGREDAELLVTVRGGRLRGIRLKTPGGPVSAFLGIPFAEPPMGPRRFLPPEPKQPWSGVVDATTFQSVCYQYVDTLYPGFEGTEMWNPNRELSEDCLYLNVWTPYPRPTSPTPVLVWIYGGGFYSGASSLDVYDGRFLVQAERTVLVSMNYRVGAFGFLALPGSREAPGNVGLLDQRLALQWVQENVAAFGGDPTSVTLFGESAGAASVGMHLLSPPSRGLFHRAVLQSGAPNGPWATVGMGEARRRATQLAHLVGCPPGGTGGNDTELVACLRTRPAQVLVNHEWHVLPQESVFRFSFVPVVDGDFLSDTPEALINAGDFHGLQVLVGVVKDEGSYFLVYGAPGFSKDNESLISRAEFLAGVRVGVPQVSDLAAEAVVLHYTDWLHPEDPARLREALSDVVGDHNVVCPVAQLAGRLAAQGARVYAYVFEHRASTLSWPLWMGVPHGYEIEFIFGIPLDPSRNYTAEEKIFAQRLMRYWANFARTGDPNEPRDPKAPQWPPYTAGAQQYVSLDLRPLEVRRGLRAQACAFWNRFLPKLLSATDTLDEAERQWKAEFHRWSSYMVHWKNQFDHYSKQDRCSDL
The next series can be described thus: in vitro. The note with it: PAMPA, pH 7.4. In general terms: PAMPA measures passive passage across an artificial lipid membrane.

Sequence of Acetylcholinesterase (Electrophorus electricus, UniProt O42275) (O42275 whole entry): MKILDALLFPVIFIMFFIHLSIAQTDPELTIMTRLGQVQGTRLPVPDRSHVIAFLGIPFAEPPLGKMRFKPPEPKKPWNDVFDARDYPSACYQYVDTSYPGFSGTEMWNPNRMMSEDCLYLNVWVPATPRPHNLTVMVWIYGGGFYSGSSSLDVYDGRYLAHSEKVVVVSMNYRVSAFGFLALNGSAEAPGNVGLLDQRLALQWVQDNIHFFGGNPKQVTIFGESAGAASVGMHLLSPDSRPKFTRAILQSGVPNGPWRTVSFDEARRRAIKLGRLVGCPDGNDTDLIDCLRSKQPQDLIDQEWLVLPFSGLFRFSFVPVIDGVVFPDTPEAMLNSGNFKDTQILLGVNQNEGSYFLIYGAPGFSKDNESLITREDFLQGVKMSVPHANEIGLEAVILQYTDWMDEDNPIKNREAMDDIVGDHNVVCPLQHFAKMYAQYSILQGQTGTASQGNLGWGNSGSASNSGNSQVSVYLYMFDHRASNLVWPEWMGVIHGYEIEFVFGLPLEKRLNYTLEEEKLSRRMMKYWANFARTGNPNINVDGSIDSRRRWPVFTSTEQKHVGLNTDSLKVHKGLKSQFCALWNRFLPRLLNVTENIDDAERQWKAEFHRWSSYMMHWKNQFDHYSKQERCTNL
Description for in vitro: Permeability of the compound at 30 to 50 uM at pH 7.4 by PAMPA-BBB assay

Broadly, the pIC50 is the IC50 on a negative log10 scale, so that one unit is a factor of ten. `COc1ccc(S(=O)(=O)NCC(=O)Nc2ccc3c(=O)n4c(nc3c2)CCC4)cc1OC`: the pIC50 was 4.98 at Acetylcholinesterase [1] and less than 4.30 on Cholinesterase. As for `O=C(CNS(=O)(=O)c1ccccc1Br)Nc1ccc2c(=O)n3c(nc2c1)CCC3`, the results for the negative logarithm of the IC50 (pIC50) against Acetylcholinesterase [1] and against Cholinesterase were 5.38 and less than 4.30, respectively.

On to `O=C(CNS(=O)(=O)c1cccc(Cl)c1)Nc1ccc2c(=O)n3c(nc2c1)CCC3`, for which the pIC50 against Acetylcholinesterase [1] was 5.40; against Cholinesterase, less than 4.30. With `O=C(CNS(=O)(=O)c1cccc(F)c1)Nc1ccc2c(=O)n3c(nc2c1)CCC3`, the pIC50 against Acetylcholinesterase [1] is 5.35; on Cholinesterase, less than 4.30.

For the compound `O=C(CNS(=O)(=O)c1ccc(Br)cc1)Nc1ccc2c(=O)n3c(nc2c1)CCC3`, the pIC50 against Acetylcholinesterase [1] and on Cholinesterase was less than 4.30 throughout. Regarding `O=C(CNS(=O)(=O)c1ccc(C(F)(F)F)cc1)Nc1ccc2c(=O)n3c(nc2c1)CCC3`, the pIC50 is 4.61 against Acetylcholinesterase [1] and less than 4.30 against Cholinesterase.

Compound `O=C(CCCCN1CCN(Cc2ccccc2)CC1)Nc1ccc2nc3n(c(=O)c2c1)CCC3` had a negative logarithm of the IC50 (pIC50) against Acetylcholinesterase [2] of 8.48. `O=C(CNS(=O)(=O)c1ccccc1)Nc1ccc2c(=O)n3c(nc2c1)CCC3`: the pIC50 was 5.27 at Acetylcholinesterase [1] and 4.31 against Cholinesterase. Usually Papp stands for a coefficient for how fast a substance crosses the barrier. A lower Papp goes with poor permeation. In turn, `CNC(=C[N+](=O)[O-])NCCSCc1ccc(CN(C)C)o1` [RANITIDINE] yielded a Papp at 50 µM in the series “in vitro” of 0.6 nm/s. For the compound `O=C(CNS(=O)(=O)c1ccccc1OC(F)(F)F)Nc1ccc2c(=O)n3c(nc2c1)CCC3`, the pIC50 at Acetylcholinesterase [1] is 6.11; at Cholinesterase, less than 4.30.

Regarding `O=C(CNS(=O)(=O)c1ccccc1Cl)Nc1ccc2c(=O)n3c(nc2c1)CCC3`, the pIC50 is 5.59 at Acetylcholinesterase [1] and less than 4.30 against Cholinesterase. Taken in the same sequence, the figures for `COc1ccc(S(=O)(=O)NCC(=O)Nc2ccc3c(=O)n4c(nc3c2)CCC4)c(OC)c1` were 5.04 and less than 4.30. For `O=C(CNS(=O)(=O)c1cccc(OC(F)(F)F)c1)Nc1ccc2c(=O)n3c(nc2c1)CCC3`, the pIC50 against Acetylcholinesterase [1] and against Cholinesterase was less than 4.30 throughout.

As to `O=C(CNS(=O)(=O)c1ccc(F)cc1)Nc1ccc2c(=O)n3c(nc2c1)CCC3`, the pIC50 was 5.25 against Acetylcholinesterase [1] and less than 4.30 against Cholinesterase. Regarding `COc1ccc(S(=O)(=O)NCC(=O)Nc2ccc3c(=O)n4c(nc3c2)CCC4)cc1`, the pIC50 is 5.25 against Acetylcholinesterase [1] and 4.48 against Cholinesterase. `Cc1ccc(S(=O)(=O)NCC(=O)Nc2ccc3c(=O)n4c(nc3c2)CCC4)cc1`: the pIC50 against Acetylcholinesterase [1] was 4.75; at Cholinesterase it was less than 4.30. In the case of `O=C(CNS(=O)(=O)c1c(F)cccc1F)Nc1ccc2c(=O)n3c(nc2c1)CCC3`, the pIC50 on Acetylcholinesterase [1] is 5.29; against Cholinesterase it was less than 4.30. Turning to `O=C(CNS(=O)(=O)c1cc(Cl)cc(Cl)c1)Nc1ccc2c(=O)n3c(nc2c1)CCC3`, the pIC50 against Acetylcholinesterase [1] and against Cholinesterase was less than 4.30 each time.

For `O=C(CNS(=O)(=O)c1ccc(OC(F)(F)F)cc1)Nc1ccc2c(=O)n3c(nc2c1)CCC3`, the pIC50 at Acetylcholinesterase [1] and on Cholinesterase was less than 4.30 in each case. Compound `COc1ccc2[nH]c(C(=O)Nc3ccc4nc5n(c(=O)c4c3)CCC5)cc2c1` gave a pIC50 on Acetylcholinesterase [2] of 6.92. With `O=C(CNS(=O)(=O)c1c(Cl)cccc1Cl)Nc1ccc2c(=O)n3c(nc2c1)CCC3`, the pIC50 against Acetylcholinesterase [1] was 5.39; against Cholinesterase, 4.32. Consider `O=C(CNS(=O)(=O)c1ccc(Cl)cc1)Nc1ccc2c(=O)n3c(nc2c1)CCC3`, for which the pIC50 was 4.32 at Acetylcholinesterase [1] and less than 4.30 against Cholinesterase. `O=C(CNS(=O)(=O)c1cc(Br)cc(C(F)(F)F)c1)Nc1ccc2c(=O)n3c(nc2c1)CCC3`: the pIC50 at Acetylcholinesterase [1] and against Cholinesterase was less than 4.30 throughout.

Take `O=C(CNS(=O)(=O)c1ccc(F)c(Cl)c1)Nc1ccc2c(=O)n3c(nc2c1)CCC3`: the pIC50 was 5.09 against Acetylcholinesterase [1] and less than 4.30 against Cholinesterase. Taken in the same sequence, the figures for `CC(C)(C)c1ccc(S(=O)(=O)NCC(=O)Nc2ccc3c(=O)n4c(nc3c2)CCC4)cc1` were less than 4.30 and less than 4.30. On to `CC(C)c1cc(C(C)C)c(S(=O)(=O)NCC(=O)Nc2ccc3c(=O)n4c(nc3c2)CCC4)c(C(C)C)c1`, for which the pIC50 on Acetylcholinesterase [1] and at Cholinesterase was less than 4.30 throughout. Take `O=C(CNS(=O)(=O)c1cccc(C(F)(F)F)c1)Nc1ccc2c(=O)n3c(nc2c1)CCC3`: the pIC50 on Acetylcholinesterase [1] is 4.68; on Cholinesterase, less than 4.30. For the compound `CC(C)c1ccc(S(=O)(=O)NCC(=O)Nc2ccc3c(=O)n4c(nc3c2)CCC4)cc1`, the figures for the pIC50 at Acetylcholinesterase [1] and against Cholinesterase were 4.90 and less than 4.30, respectively. Taken in the same sequence, the figures for `CCCc1ccc(S(=O)(=O)NCC(=O)Nc2ccc3c(=O)n4c(nc3c2)CCC4)cc1` were less than 4.30 and less than 4.30. With `NS(=O)(=O)c1cc2c(cc1Cl)N=CNS2(=O)=O` [CHLOROTHIAZIDE], the Papp at 50 µM in the series “in vitro” turned out to be 13.6 nm/s. On to `O=C(CNS(=O)(=O)c1ccccc1F)Nc1ccc2c(=O)n3c(nc2c1)CCC3`, for which the results for the pIC50 at Acetylcholinesterase [1] and on Cholinesterase were 5.28 and less than 4.30, respectively. Taken in the same sequence, the figures for `COc1ccc(Br)cc1S(=O)(=O)NCC(=O)Nc1ccc2c(=O)n3c(nc2c1)CCC3` were 5.28 and less than 4.30. Regarding `O=C(CNS(=O)(=O)c1cc(Cl)c(F)cc1F)Nc1ccc2c(=O)n3c(nc2c1)CCC3`, the pIC50 against Acetylcholinesterase [1] and against Cholinesterase was less than 4.30 throughout. For `CCc1ccc(S(=O)(=O)NCC(=O)Nc2ccc3c(=O)n4c(nc3c2)CCC4)cc1`, the pIC50 against Acetylcholinesterase [1] was 4.50; at Cholinesterase it was less than 4.30.

As to `O=C(CNS(=O)(=O)c1cccc(Br)c1)Nc1ccc2c(=O)n3c(nc2c1)CCC3`, the pIC50 against Acetylcholinesterase [1] is 5.10; on Cholinesterase, less than 4.30.
